Assay results from the OPERA property sets (Mansouri et al. 2018).

| SMILES | logP |
| --- | --- |
| CCC1(CC)C(=O)N=C(OC(C)C)NC1=O | 1.44 |
| O=C(Cn1ccnc1[N+](=O)[O-])NCc1ccccc1 | 0.91 |
| Nc1ccc(S(=O)(=O)Nc2ccc([N+](=O)[O-])cc2)cc1 | 2.14 |
| CC(CC(=O)O)CC(=O)c1ccc(-c2ccccc2)cc1 (stereo not given) | 3.82 |
| O=C(CCN1CCC(O)(c2ccc(Cl)cc2)CC1)c1ccc(F)cc1 | 3.24 |
| CCC1OC(=O)C(C)C(OC2CC(C)(OC)C(OC=O)C(C)O2)C(C)C(OC2OC(C)CC(N(C)C)C2O)C(C)(O)CC(C)C(=O)C(C)C(O)C1(C)O (stereo not given) | 2.64 |
| CC(C)CCOC(=O)c1ccccc1 | 4.15 |
| O=C1Nc2ccccc2C1c1ccccc1 (stereo not given) | 2.59 |
| O=c1ccccc(O)c1 | 0.81 |
| OC(Cn1ccnc1)(c1ccc(-c2cccnc2)cc1)c1ccc(F)cc1F (stereo not given) | 3.31 |
| CCOP(N)(=O)ON=C(C#N)c1ccccc1 (stereo not given) | 0.72 |
| CC(C(=O)NCCO)n1ccnc1[N+](=O)[O-] (stereo not given) | -1.16 |
| CNCCc1ccccc1 | 1.91 |
| CCOC(=O)C=COc1ccccc1 | 3.18 |
| Oc1ccc(C2(O)CCN(CCCSc3ccc(F)cc3)CC2)cc1 | 4.17 |
| CS(=O)CCn1ccnc1[N+](=O)[O-] (stereo not given) | -1.22 |
| CC1(C)[C@@H](O[C@H]2O[C@H](C(=O)O)[C@@H](O)[C@H](O)[C@H]2O[C@@H]2O[C@H](C(=O)O)[C@@H](O)[C@H](O)[C@H]2O)CC[C@]2(C)[C@H]3C(=O)C=C4[C@@H]5C[C@@](C)(C(=O)O)CC[C@]5(C)CC[C@@]4(C)[C@]3(C)CC[C@@H]12 | 2.8 |
| Oc1ccc2[nH]ccc2c1 | 1.11 |
| CCC1OC(=O)C(C)C(OC2CC(C)(OC)C(OC(C)=O)C(C)O2)C(C)C(OC2OC(C)CC(N(C)C)C2O)C(C)(O)CC(C)C(=O)C(C)C(O)C1C (stereo not given) | 3.23 |
| CC(=O)Nc1c(I)c(C(=O)N(C)CC(O)CO)c(I)c(C(=O)N(C)CC(O)CO)c1I (stereo not given) | -2.71 |
| Cc1nc2n(c(=O)c1C)CCCC2 | 0.6 |
| CCN(CC)CCCCCCC(=O)Nc1c(C)cccc1C | 3.48 |
| O=C(Cc1ccccc1)c1ccc2n1CCC2C(=O)O (stereo not given) | 2.52 |
| NS(=O)(=O)c1nc2c(Cl)cc(Cl)cc2s1 | 2.6 |

| SMILES | logP |
| --- | --- |
| CC(=O)Nc1nc(NCC(O)CO)c(Cl)nc1[N+](=O)[O-] (stereo not given) | 0 |
| OC1c2ccccc2C2CCCCC2C1O (stereo not given) | 2.47 |
| O=C(COc1ccc(OCCNCC(O)COc2ccccc2)cc1)NCc1ccccc1 (stereo not given) | 3.2 |
| O=c1ccc2ccc3occc3c2o1 | 2.08 |
| C=C(C)C(=O)OCC(CC)CCCC (stereo not given) | 4.54 |
| Nc1ncc(Cc2cc3c(cc2Br)OCO3)c(N)n1 | 2.48 |
| O=C(CN1CCCCC1)NCc1ccccc1 | 2.27 |
| CCN1CCCCC1 | 1.75 |
| CCN1CC(C(O)C(CC2CCCCC2)NC(=O)C(Cc2cnc[nH]2)NC(=O)C(Cc2ccc(OC)cc2)NC(=O)N2CCOCC2)OC1=O (stereo not given) | 2.11 |
| O=C(O)/C=C/Oc1ccc(Cl)cc1Cl | 3.46 |
| O=C(O)CCn1ccc2ccccc21 | 2.2 |
| ClC1=C(Cl)C2(Cl)C3C4OC4C(Cl)C3C1(Cl)C2(Cl)Cl (stereo not given) | 4.98 |
| CCC(=O)OCOC(=O)c1cc(S(N)(=O)=O)c(Cl)cc1NCc1ccco1 | 2.9 |
| Cc1ncsc1CCCl | 2.12 |
| CCCCCCC(C)(C)c1cc(O)c2c(c1)OC(C)(C)C1CCC(C=O)=CC21 (stereo not given) | 8.03 |
| ClC(Cl)=C(c1ccc(Cl)cc1)c1ccc(Cl)cc1 | 6.51 |
| CCCCCCCCC=CCCCCCCCC(=O)O | 7.64 |
| COc1cccc(NC(=O)CN2CCCCC2)c1 | 2.71 |
| CNC(=O)COc1cccc(OCC(O)CNC(C)C)c1 (stereo not given) | 0.35 |
| Cc1cccc(C)c1NC(=O)CCCCCN | 1.29 |
| CCCOC(=O)C(C(=O)OCCC)=C1SCCS1 | 3.35 |
| O=C1CC(c2ccccc2)c2ccccc2N1 (stereo not given) | 2.79 |
| COc1cccc2c1C(=O)c1c(O)c3c(c(O)c1C2=O)CC(O)(C(C)=O)CC3OC1CC(N2CCOCC2C#N)C(O)C(C)O1 (stereo not given) | 2.59 |
| CCN(CC)C(C)CCCC(=O)Nc1c(C)cccc1C (stereo not given) | 2.64 |

| SMILES | logP |
| --- | --- |
| [N-]=[N+]=N[C@H]1C[C@H](n2ccc(N)nc2=O)O[C@@H]1CO | -0.7 |
| CCCCCCCCC(=O)O | 3.42 |
| Oc1cccc2c1CCCC2 | 2.95 |
| C#CC1(O)C(F)CC2C3CCc4cc(O)ccc4C3CCC21C (stereo not given) | 3.3 |
| CNC(Cc1ccccc1)Cc1ccccc1 | 3.8 |
| O=C1CCc2ccccc2N1 | 1.34 |
| O=S(=O)(O)c1cccc2c(O)cccc12 | -0.17 |
| CCN(CC)CCNC(=O)c1cc(Br)c(N)cc1OC | 2.83 |
| Oc1ccc2cc(O)ccc2c1 | 1.9 |
| Cc1cccc(C)c1N(CCCN1CCCCC1)C(=O)Cc1ccccc1 | 5.28 |
| Cc1cnc2n(c1=O)CCCC2C (stereo not given) | 0.69 |
| O=C1c2ccccc2C(=O)C1c1ccc(-c2ccccc2)cc1 | 4.79 |
| CN(C)c1nc(N(C)C)nc(N(C)O)n1 | 1.61 |
| Cc1ccc(C(O)(Cn2ccnc2)c2ccc(Br)cc2)cc1 (stereo not given) | 3.55 |
| COc1c(Br)cc(Br)cc1Br | 4.48 |
| COC(=O)Nc1ccc(Cl)c(Cl)c1 | 3.32 |
| Cc1cc(C)cc(C2C(=O)c3ccccc3C2=O)c1 | 4.02 |
| Cc1ccc(N(CCO)CCO)cc1 | 1.09 |
| COc1cc(Cc2cnc(N)nc2N)ccc1N(C)C | 1.87 |
| Oc1ccc(O)c2ccccc12 | 1.9 |
| CCCCCCCCCCCC(=O)C(C)(C)C(=O)N(C)c1c(OC)cc(OC)cc1OC | 6.67 |
| CC1CCCc2nccc(=O)n21 (stereo not given) | 0.3 |
| O=CC1=CC=C2C(C(=O)O)CCN2c2cc(Br)ccc21 (stereo not given) | 3.6 |
| NCCc1cnc[nH]1 | -0.7 |

| SMILES | logP |
| --- | --- |
| CCNc1ccc(C(=O)OCCN(C)C)cc1 | 2.62 |
| O=C1C(N2CCN(CCO)CC2)=C(N2CC2)C(=O)C(N2CCN(CCO)CC2)=C1N1CC1 | -0.77 |
| CCCC(=O)OCC(Cc1cncn1C)C(CC)C(=O)OCc1ccccc1 (stereo not given) | 3.78 |
| O=C1c2ccccc2C(=O)C1c1cccc(C(F)(F)F)c1 | 3.78 |
| CC1(C)CCC(c2ccccc2)(N2CCCCC2)CC1 | 6.39 |
| OCc1cc(Br)ccc1O | 1.72 |
| CCCCCC=CCC=CCCCCCCCC(=O)O | 7.05 |
| Nc1ncnc2c1ncn2[C@H]1CC[C@@H](CO)O1 | -0.25 |
| CCCCCCC(C)=NNC(=N)N | 2.08 |
| CCN1CC(C(O)C(CC2CCCCC2)NC(=O)C(Cc2cnc[nH]2)NC(=O)C(CC(=O)N(C)CCOCOC)Cc2ccccc2)OC1=O (stereo not given) | 2.49 |
| CCN1CC(C(O)C(CC2CCCCC2)NC(=O)C(Cc2c[nH]cn2)NC(=O)C(CC(=O)N2CCOCC2)Cc2ccccc2)OC1=O (stereo not given) | 2.2 |
| CCN(CC)C(C)CC(=O)Nc1c(C)cccc1C (stereo not given) | 2.63 |
| c1ccc(C2CCNCC2)cc1 | 2.39 |
| CCCCCc1cc(O)c2c(c1)OC(C)(C)[C@@H]1CCC(CO)=C[C@@H]21 | 5.33 |
| CCCCCC1Nc2cc(C(F)(F)F)c(S(N)(=O)=O)cc2S(=O)(=O)N1 (stereo not given) | 2.66 |
| CCC(C(=O)OCc1ccc(C)cc1)C(COC(=O)c1ccccc1)Cc1cncn1C (stereo not given) | 4.85 |
| CC(C)(C)c1cccc(O)c1 | 3.3 |
| COc1ccc(NC(=O)CN2CCCCC2)cc1 | 2.52 |
| CCCCCC(=O)OCC(Cc1cncn1C)C(CC)C(=O)OCc1ccccc1 (stereo not given) | 4.75 |
| Cc1ccc(S(=O)(=O)NC(=O)NN2CCCC2)cc1 | 0.65 |
| CCOC(=O)Cn1nc2ccccc2n1 | 1.85 |
| CCCCCCCCCCCCCCCCCC(=O)O | 8.23 |
| CC(C)(C)c1cc(C2C(=O)c3ccccc3C2=O)cc(C(C)(C)C)c1 | 6.86 |
